From ChEMBL document CHEMBL6096716, “Second-Generation Cap Analogue Prodrugs for Targeting Aberrant Eukaryotic Translation Initiation Factor 4E Activity in Cancer” (ACS Med Chem Lett, 2025)
Activity calls are given as the source filed them. The rule behind the calls is not given here.

Experiments:
[1] = system: A2058; test: Antiproliferative activity against human A2058 cells harbouring BRAF V600E mutant assessed as cell death incubated for 48 hrs by Celltiter-glo assay; assay type: functional, cell-based; conditions: for Activity: dose 10-60 µM; for EC50: A2058, 48 h
[2] = biological target: T1, Eukaryotic translation initiation factor 4E (Homo sapiens, UniProt P06730); test: Competitive inhibition of human 10 his-tagged eIF4E extracted from Escherichia coli BL21 (DE3) cells incubated for 40 mins by fluorescence polarization assay
[3] = biological target: T1, Eukaryotic translation initiation factor 4E; test: Induction of thermal stabilization of eIF4E in human HeLa cell lysates incubated for 1 hr at 42 to 52 degreeC by CETSA based Western blot analysis; assay type: subcellular
[4] = system: A2058; test: Downregulation of CCND3 expression in human A2058 cells incubated for 6 hrs by Western blot analysis; assay type: functional, cell-based
[5] = system: A2058; test: Downregulation of ODC1 expression in human A2058 cells incubated for 6 hrs by Western blot analysis; assay type: functional, cell-based
[6] = system: A-375; test: Antiproliferative activity against human A-375 cells incubated for 48 hrs by Celltiter-glo assay; assay type: functional, cell-based; conditions: A-375, 48 h
[7] = system: A2058; test: Antiproliferative activity against human A2058 cells harbouring BRAF V600E mutant assessed as cell death at 50 uM incubated for 48 hrs by Celltiter-glo assay; assay type: functional, cell-based
[8] = system: SK-MEL-2; test: Antiproliferative activity against human SK-MEL-2 cells at 1.0 to 1.8 uM incubated for 48 hrs by Celltiter-glo assay; assay type: functional, cell-based; conditions: dose 1-1.8 µM
[9] = system: A2058; test: Effect on c-Myc expression in human A2058 cells incubated for 6 hrs by Western blot analysis; assay type: functional, cell-based
[10] = system: A2058; test: Downregulation of CCND1 expression in human A2058 cells incubated for 6 hrs by Western blot analysis; assay type: functional, cell-based

T1 sequence (P06730 whole entry): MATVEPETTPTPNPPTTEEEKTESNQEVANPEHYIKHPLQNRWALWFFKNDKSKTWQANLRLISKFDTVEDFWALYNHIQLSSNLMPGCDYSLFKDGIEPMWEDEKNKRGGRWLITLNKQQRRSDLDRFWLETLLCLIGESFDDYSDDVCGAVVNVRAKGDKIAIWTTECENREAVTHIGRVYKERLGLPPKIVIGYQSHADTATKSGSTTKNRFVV

Question: Which Activity [1] does the source give for `CC(C)(C)C(=O)OCOP(=O)(CCc1ccc(Cn2c[n+](Cc3cc4cc(Cl)ccc4o3)c3c(=O)[nH]c(N)nc32)cc1)OCOC(=O)C(C)(C)C` here?
Answer: The Activity was “inactive”.

Question: With `Nc1nc2c(c(=O)[nH]1)[n+](Cc1cc3cc(Cl)ccc3o1)cn2Cc1cccc(CCP(=O)(O)O)c1` as the compound, how does the IC50 [2] read?
Answer: The IC50 was 4.1 µM.

Question: What about the Activity [3] of the same compound?
Answer: The Activity was “Active”.

Question: `Nc1nc2c(c(=O)[nH]1)[n+](Cc1cc3cc(Cl)ccc3o1)cn2Cc1ccccc1CCP(=O)(O)O` was tested. Which IC50 [2] did it give?
Answer: Its IC50 is 17.2 µM.

Question: How did the Activity [4] turn out when `CC(C)(C)C(=O)OCOP(=O)(CCc1cccc(Cn2c[n+](Cc3cc4cc(Cl)ccc4o3)c3c(=O)[nH]c(N)nc32)c1)OCOC(=O)C(C)(C)C` was run?
Answer: The Activity was “Active”.

Question: And the Activity [5]?
Answer: Its Activity is “Active”.

Question: What about the EC50 [6] of the same compound?
Answer: Its EC50 is 54 µM.

Question: And the EC50 [1]?
Answer: The EC50 was 40 µM.

Question: And the Activity [1]?
Answer: Its Activity is “Dose-dependent-effect”.

Question: And the Activity [7]?
Answer: The Activity was “Active; Compound Showed Near Complete Cell Death”.

Question: What about the Activity [8] of the same compound?
Answer: The Activity was “inactive”.

Question: What about the Activity [9] of the same compound?
Answer: The Activity was “inactive”.

Question: And the Activity [10]?
Answer: The Activity was “Active”.

Question: For `CC(C)(C)C(=O)OCOP(=O)(OCOC(=O)C(C)(C)C)c1cccc(Cn2c[n+](Cc3cc4cc(Cl)ccc4o3)c3c(=O)[nH]c(N)nc32)c1`, which Activity [7] is on record?
Answer: Its Activity is “Active; Compound Found To Be Less Active”.

Question: What does the source list for `CC(C)(C)C(=O)OCOP(=O)(CCc1ccccc1Cn1c[n+](Cc2cc3cc(Cl)ccc3o2)c2c(=O)[nH]c(N)nc21)OCOC(=O)C(C)(C)C`?
Answer: EC50 [1]: 51.3 µM; Activity [1]: Dose-dependent-effect

Question: With `CC(C)(C)C(=O)OCOP(=O)(Cc1cccc(Cn2c[n+](Cc3cc4cc(Cl)ccc4o3)c3c(=O)[nH]c(N)nc32)c1)OCOC(=O)C(C)(C)C` as the compound, how does the Activity [7] read?
Answer: Its Activity is “Active; Compound Found To Be Less Active”.

Question: Which Activity [7] does the source give for `CC(C)(C)C(=O)OCOP(=O)(CCc1cccc(-n2c[n+](Cc3cc4cc(Cl)ccc4o3)c3c(=O)[nH]c(N)nc32)c1)OCOC(=O)C(C)(C)C` here?
Answer: Its Activity is “Active”.
